Data as given in ChEMBL document CHEMBL5625245, “Novel ProTide prodrugs of 5-fluoro-2'-deoxyuridine for the treatment of liver cancer” (Eur J Med Chem, 2023).
pIC50: −log10 of the molar value. In brackets after ≈: the same amount, converted by molar mass.

Key:
[1] = Solubility of the compound in 5% DMSO/8% Tween80/87% saline at 25 degreeC by HPLC analysis; format: physicochemical
[2] = Toxicity in orthotopic mouse assessed as effect on drug tolerance at 60 mg/kg, iv administered twice daily for 18 days; format: organism-based; settings: in vivo, 432 h, time 18 day
[3] = Toxicity in orthotopic mouse assessed as effect on spleen at 60 mg/kg, iv administered twice daily for 18 days by H and E staining based analysis; format: organism-based; settings: in vivo, 432 h, time 18 day
[4] = Solubility of the compound in 5% DMSO/10% Tween80/85% saline at 25 degreeC by HPLC analysis; format: physicochemical
[5] = Solubility of the compound in 5% DMSO/10% PEG300/85% saline at 25 degreeC by HPLC analysis; format: physicochemical
[6] = Toxicity in orthotopic mouse assessed as effect on kidney at 60 mg/kg, iv administered twice daily for 18 days by H and E staining based analysis; format: organism-based; settings: in vivo, 432 h, time 18 day
[7] = (§1) Drug metabolism in rat liver homogenate assessed as formation of (2S)-2-[[[(2R,3S,5R)-3-[(2S)-1-[(2S)-2-(tert-butoxycarbonylamino)-3-methyl-butanoyl]pyrrolidine-2-carbonyl]oxy-5-(5-fluoro-2,4-dioxo-pyrimidin-1-yl)tetrahydrofuran-2-yl]methoxy-hydroxy-phosphoryl]amino]propanoic acid measured after 20 mins; format: ADME, tissue-based; settings: tissue homogenate
[8] = Selectivity index, ratio of IC50 for human L02 cells to IC50 for human HepG2 cells; format: toxicity; settings: L02 cells and HepG2 cells, read-out: Ratio IC50
[9] = Antiproliferative activity against human NCM460 cells assessed as reduction in cell viability measured after 48 to 72 hrs by MTT assay; format: toxicity, cell-based
[10] = Metabolic stability in human plasma assessed as half life at 1 mg/ml measured upto 72 hrs by HPLC analysis; format: ADME, cell-free
[11] = Solubility of the compound in 2% DMSO/8% tween80/90% saline at 25 degreeC by HPLC analysis; format: physicochemical
[12] = Toxicity in orthotopic mouse assessed as effect on lung at 60 mg/kg, iv administered twice daily for 18 days by H and E staining based analysis; format: organism-based; settings: in vivo, 432 h, time 18 day
[13] = Toxicity in orthotopic mouse assessed as effect on body weight at 60 mg/kg, iv administered twice daily for 18 days; format: organism-based; settings: in vivo, 432 h, time 18 day
[14] = Metabolic stability in rat liver homogenates assessed as half life at 1 mg/ml measured after 4 hrs by HPLC analysis; format: ADME, tissue-based
[15] = Solubility of the compound in 5% PBS/95% saline at 25 degreeC by HPLC analysis; format: physicochemical
[16] = Solubility of the compound in 100% saline at 25 degreeC by HPLC analysis; format: physicochemical
HepG2 [17] = assay: Antitumor activity against human HepG2 cells xenografted in orthotopic mouse model assessed as average number of tumor at 60 mg/kg, iv administered twice daily for 18 days in presence of 5-Fluorouracil (reference value: 49+/3.6 mM); format: functional; settings: time 18 day
[18] = Metabolic stability in rat plasma assessed as half life at 1 mg/ml measured upto 72 hrs by HPLC analysis; format: ADME, cell-free
[19] = Solubility of the compound in 2% DMSO/10% tween80/88% saline at 25 degreeC by HPLC analysis; format: physicochemical
[20] = Selectivity index, ratio of IC50 for human L02 cells to IC50 for human Bel-7402 cells; format: toxicity; settings: L02 cells and Bel-7402 cells, read-out: Ratio IC50
[21] = Toxicity in orthotopic mouse assessed as effect on liver at 60 mg/kg, iv administered twice daily for 18 days by H and E staining based analysis; format: organism-based; settings: in vivo, 432 h, time 18 day
[22] = Antiproliferative activity against human L02 cells assessed as reduction in cell viability measured after 48 to 72 hrs by MTT assay; format: toxicity, cell-based
[23] = Solubility of the compound in 5% DMSO/10% cremophor EL/85% saline at 25 degreeC by HPLC analysis; format: physicochemical
[24] = Toxicity in orthotopic mouse assessed as effect on heart at 60 mg/kg, iv administered twice daily for 18 days by H and E staining based analysis; format: organism-based; settings: in vivo, 432 h, time 18 day
HepG2 [25] = assay: Antiproliferative activity against human HepG2 cells assessed as reduction in cell viability at 20 uM measured after 48 hrs by MTT assay relative to control; format: functional
[26] = Solubility of the compound in 5% PEG300/95% saline at 25 degreeC by HPLC analysis; format: physicochemical
Bel-7402 [27] = assay: Antiproliferative activity against human Bel-7402 cells assessed as reduction in cell viability at 20 uM measured after 48 hrs by MTT assay relative to control; format: functional
Bel-7402 [28] = assay: Antiproliferative activity against human Bel-7402 cells assessed as reduction in cell viability measured after 48 to 72 hrs by MTT assay; format: functional, cell-based
HepG2 [29] = assay: Antiproliferative activity against human HepG2 cells assessed as reduction in cell viability measured after 48 to 72 hrs by MTT assay; format: functional, cell-based
[30] = Solubility of the compound in 5% DMSO/95% saline at 25 degreeC by HPLC analysis; format: physicochemical
[31] = Toxicity in orthotopic mouse assessed as change in liver weight at 60 mg/kg, iv administered twice daily for 18 days; format: organism-based; settings: in vivo, 432 h, time 18 day
HepG2 [32] = assay: Antitumor activity against human HepG2 cells xenografted in orthotopic mouse model assessed as tumor growth inhibition at 60 mg/kg, iv administered twice daily for 18 days in presence of 5-Fluorouracil relative to control; format: functional; settings: HepG2, 432 h, time 18 day, read-out: TGI
[33] = as §1, with “120” for “20”; format: ADME, tissue-based; settings: tissue homogenate, 2 h
HepG2 [34] = assay: Antitumor activity against human HepG2 cells xenografted in orthotopic mouse model assessed as tumor growth inhibition at 15 mg/kg, iv administered twice daily for 18 days relative to control; format: functional; settings: HepG2, 432 h, time 18 day, read-out: TGI
HepG2 [35] = assay: Antitumor activity against human HepG2 cells xenografted in orthotopic mouse model assessed as average number of tumor at 15 mg/kg, iv administered twice daily for 18 days (reference value: 49+/3.6 mM); format: functional; settings: time 18 day
[36] = Drug metabolism in rat liver homogenate assessed as (2S)-2-[[[(2R,3S,5R)-3-[(2S)-2-(tert-butoxycarbonylamino)propanoyl]oxy-5-(5-fluoro-2,4-dioxo-pyrimidin-1-yl)tetrahydrofuran-2-yl]methoxy-hydroxy-phosphoryl]amino]propanoic acid formation measured upto 90 mins; format: ADME, tissue-based; settings: tissue homogenate, 1.5 h

Structure (SMILES)	solubility [1] [µg/mL]	Activity [2]	Activity [3]	solubility [4] [µg/mL]	solubility [5] [µg/mL]	Activity [6]	selectivity ratio [8]	pIC50 [9]	half-life at 1 mg/ml [10] [h]	solubility [11] [µg/mL]	Activity [12]	Activity [13]	half-life at 1 mg/ml [14] [h]	solubility [15] [µg/mL]	solubility [16] [µg/mL]	tumour count (HepG2 [17])	pIC50 [22]	Activity (HepG2 [25]) [%]	pIC50 (Bel-7402 [28])	pIC50 (HepG2 [29])	also measured
CC(C)OC(=O)[C@H](C)N[P@](=O)(OC[C@H]1O[C@@H](n2cc(F)c(=O)[nH]c2=O)C[C@@H]1OC(=O)[C@@H]1CCCN1C(=O)[C@@H](NC(=O)OC(C)(C)C)C(C)C)Oc1ccccc1	5000 (≈ 6.16 mM)	Non-Toxic	Non-Toxic	> 10000	< 1000	Non-Toxic	307	< 4.00	> 48	< 5000	Non-Toxic	Non-Toxic	1.63	< 1000	< 1000	35	< 4.00	75.24	6.09	6.27	Drug metabolism [7]: Metabolite_Detected; half-life at 1 mg/ml [18]: > 48 h; solubility [19]: > 10000 µg/mL; selectivity ratio [20]: 205; Activity [21]: Non-Toxic; solubility [23]: 5000 µg/mL (≈ 6.16 mM); Activity [24]: Non-Toxic; solubility [26]: < 1000 µg/mL; Activity (Bel-7402 [27]): >70%; solubility [30]: < 1000 µg/mL; Activity [31]: Toxic; inhibition in vivo at 60 mg/kg (HepG2 [32]): 28.6%; Drug metabolism [33]: Metabolite_Detected
O=c1[nH]cc(F)c(=O)[nH]1 [FLUOROURACIL]	–	–	–	–	–	–	–	< 4.00	–	–	–	–	–	–	–	–	< 4.00	8.31	4.44	< 4.00	inhibition in vivo at 15 mg/kg (HepG2 [34]): 0%; Activity (HepG2 [35]): 49 mM
CC(C)OC(=O)[C@H](C)N[P@](=O)(OC[C@H]1O[C@@H](n2cc(F)c(=O)[nH]c2=O)C[C@@H]1OC(=O)[C@H](C)NC(=O)OC(C)(C)C)Oc1ccccc1	5000 (≈ 7.28 mM)	Non-Toxic	Non-Toxic	> 10000	< 1000	Non-Toxic	310	< 4.00	> 48	< 5000	Non-Toxic	Non-Toxic	0.16	< 1000	< 1000	12	< 4.00	83.61	6.10	6.38	Drug metabolism [36]: Metabolite_Detected; half-life at 1 mg/ml [18]: > 48 h; solubility [19]: > 10000 µg/mL; selectivity ratio [20]: 165; Activity [21]: Non-Toxic; solubility [23]: 5000 µg/mL (≈ 7.28 mM); Activity [24]: Non-Toxic; solubility [26]: < 1000 µg/mL; Activity (Bel-7402 [27]): 82.19%; solubility [30]: < 1000 µg/mL; Activity [31]: Toxic; inhibition in vivo at 60 mg/kg (HepG2 [32]): 75.5%
